Where two headings read alike, the source gives them in different places. Starred links: 1 amine or outer side, 2 acyl side, 3 side chain; linkers in the order of their positions; H or OH if unused. Positions of bridges follow the written chain, without caps; N, C: chain ends. Non-standard residues stand in square brackets, D forms with d. Residues, ends and D or L forms follow the SMILES beside them. *: point of attachment. Phe(4-CF3) = N[C@@H](Cc1ccc(C(F)(F)F)cc1)C(=O)O; NMePhe(3-Cl) = CN[C@@H](Cc1cccc(Cl)c1)C(=O)O; NMeF = CN[C@@H](Cc1ccccc1)C(=O)O; NMeI = CC[C@H](C)[C@H](NC)C(=O)O; NMeβAla = CN(CCC(=O)[*:2])[*:1]; NMeL = CN[C@@H](CC(C)C)C(=O)O; NMeV = CN[C@H](C(=O)O)C(C)C; NMeA = CN[C@@H](C)C(=O)O; Piperidide = C1CCN(*)CC1; dNMeA = CN[C@H](C)C(=O)O; β3hA = C[C@H](N)CC(=O)O; Sar = CNCC(=O)O; tBu = CC(C)(C)*
Tests used:
[1] = PAMPA (parallel artificial membrane permeability assay); format: in vitro ADME; conditions: for Papp at 18 hours, 50 µM: PAMPA
Summary of the method: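 Artificial membrane was 10% (w/v) egg lecithin plus 0.5% (w/v) cholesterol in dodecane on a PVDF filter. A 10 mM DMSO stock was added at 0.5% (v/v) to donor buffer (50 mM MOPSO, pH 6.5, 5.0% glycocholic acid). After 18 h at 37 °C, LC/MS or LC/UV gave donor and acceptor levels for Pe.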

[2] = Metabolic stability in human hepatic microsome; format: in vitro ADME; conditions: microsomes
[3] = membrane permeation rate (Pe), 50 mM MOPSO buffer pH 6.5 with 5.0% glycocholic acid, 37° C., 18 hours, read-out: iPAMPA Pe
[4] = pH 7.4, human hepatic microsome, NADPH(+), read-out: CL NADPH(+)

| SMILES | Papp at 18 hours, 50 µM [1, 3] | microsomal CLint at 1 uM [2, 4] | iPAMPA Pe ([1]; membrane permeation rate (Pe), 50 mM MOPSO buffer pH 6.5 with 5.0% glycocholic acid, 37° C., 18 hours) | Papp at 18 hours, 50 µM ([1]; pH 6.5) | microsomal CLint at 1 uM ([2]; human, pH 7.4, CL NADPH(+)) |
| --- | --- | --- | --- | --- | --- |
| CC[C@H](C)[C@H]1C(=O)N[C@@H](Cc2ccccc2)C(=O)N[C@H](C(=O)N2CCCCC2)CC(=O)N[C@H](C)C(=O)N[C@@H](C)C(=O)N(C)[C@@H](CC(C)C)C(=O)N(C)[C@@H](CC(C)C)C(=O)N(C)[C@@H](Cc2ccccc2)C(=O)N[C@@H]([C@@H](C)O)C(=O)N(C)[C@@H](C)C(=O)N(C)[C@@H](C(C)C)C(=O)N1C [DP-229] ([dA]A[NMeL][NMeL][NMeF]T[NMeA][NMeV][NMeI]FD-Piperidide; lactam N-11) | 33 ×10⁻⁶ cm/s | 100 µL/min/mg |  |  |  |
| CC[C@H](C)[C@@H]1NC(=O)[C@H](Cc2ccccc2)N(C)C(=O)[C@H](C(C)C)N(C)C(=O)[C@H](Cc2ccccc2)NC(=O)[C@H](CC(C)C)N(C)C(=O)[C@H](CC(C)C)NC(=O)[C@@H](C(C)C)NC(=O)C[C@@H](C(=O)N2CCCCC2)NC(=O)[C@H]([C@@H](C)O)NC(=O)[C@H](C)NC(=O)[C@H](C)N(C)C1=O [DP-230] ([dV]L[NMeL]F[NMeV][NMeF]I[NMeA]ATD-Piperidide; lactam N-11) | 44 ×10⁻⁶ cm/s | 31 µL/min/mg |  |  |  |
| CC(C)C[C@H]1C(=O)N(C)[C@@H](CC(C)C)C(=O)N[C@@H]([C@@H](C)O)C(=O)N(C)[C@@H](Cc2cccc(Cl)c2)C(=O)NCC(=O)N(C)[C@@H](C(C)C)C(=O)N[C@@H](Cc2ccc(C(F)(F)F)cc2)C(=O)N[C@@H](C)CC(=O)N(C)CCC(=O)N[C@@H](COC(C)(C)C)C(=O)N1C [DP-809] (cyclo(G[NMeV][Phe(4-CF3)][β3hA][NMeβAla]S(tBu)[NMeL][NMeL]T[NMePhe(3-Cl)])) |  | 201 µL/min/mg | 7.0E−05 |  |  |
| CC[C@H](C)[C@@H]1NC(=O)[C@H](CC(C)C)N(C)C(=O)[C@H](Cc2ccccc2)NC(=O)[C@H](C)N(C)C(=O)C[C@@H](C(=O)N(C)[C@@H](Cc2ccccc2)C(=O)N(C)[C@@H](Cc2ccccc2)C(=O)N[C@@H](C)C(=O)N2CCCCC2)NC(=O)[C@H](C(C)C)N(C)C(=O)[C@H](C)N(C)C(=O)[C@H](C)N(C)C(=O)[C@H]([C@@H](C)O)NC(=O)CN(C)C1=O [DP-394] ([NMeA]F[NMeL]I[Sar]T[NMeA][NMeA][NMeV]D[NMeF][NMeF]A-Piperidide; lactam N-10) | 22 ×10⁻⁶ cm/s | 10 µL/min/mg |  |  |  |
| CC[C@H](C)[C@@H]1NC(=O)[C@H](C)N(C)C(=O)[C@H]([C@@H](C)O)NC(=O)[C@H](C)N(C)C(=O)[C@H](C(C)C)N(C)C(=O)[C@H](Cc2ccccc2)NC(=O)CN(C)C(=O)C[C@@H](C(=O)N(C)[C@@H](Cc2ccccc2)C(=O)N[C@@H](C)C(=O)N2CCCCC2)NC(=O)[C@H](C)N(C)C(=O)[C@H](CC(C)C)N(C)C1=O [DP-195] ([Sar]F[NMeV][NMeA]T[NMeA]I[NMeL][NMeA]D[NMeF]A-Piperidide; lactam N-10) | 8 ×10⁻⁶ cm/s | 52 µL/min/mg |  |  |  |
| CC[C@H](C)[C@H]1C(=O)N[C@@H](C)C(=O)N[C@H](C(=O)N2CCCCC2)CC(=O)N(C)[C@@H](C)C(=O)N[C@@H]([C@@H](C)O)C(=O)N(C)[C@@H](C)C(=O)N(C)[C@@H](C(C)C)C(=O)N[C@@H](Cc2ccccc2)C(=O)N(C)CC(=O)N(C)[C@@H](CC(C)C)C(=O)N1C [DP-73] ([NMeA]T[NMeA][NMeV]F[Sar][NMeL][NMeI]AD-Piperidide; lactam N-10) |  |  |  | 5.4 ×10⁻⁶ cm/s | 30 µL/min/mg |
| CC(C)C[C@H]1C(=O)N(C)[C@@H](CC(C)C)C(=O)N[C@H](C(=O)N2CCCCC2)CC(=O)N[C@@H](C(C)C)C(=O)N(C)[C@@H](Cc2ccccc2)C(=O)N[C@@H]([C@@H](C)O)C(=O)N(C)CC(=O)N[C@@H](COC(C)(C)C)C(=O)N1C [DP-693] (V[NMeF]T[Sar]S(tBu)[NMeL][NMeL]D-Piperidide; lactam N-8) | 35 ×10⁻⁶ cm/s | 246 µL/min/mg |  |  |  |
| CC[C@H](C)[C@@H]1NC(=O)[C@H](CC(C)C)N(C)C(=O)[C@H](Cc2ccccc2)N(C)C(=O)[C@@H](C(C)C)NC(=O)C[C@@H](C(=O)N2CCCCC2)NC(=O)[C@H](CC(C)C)N(C)C(=O)[C@H](C)N(C)C(=O)[C@H]([C@@H](C)O)NC(=O)[C@H](Cc2ccccc2)N(C)C(=O)[C@H](C)N(C)C1=O [DP-255] ([dV][NMeF][NMeL]I[NMeA][NMeF]T[NMeA][NMeL]D-Piperidide; lactam N-10) | 48 ×10⁻⁶ cm/s | 79 µL/min/mg |  |  |  |
| CC(C)C[C@@H]1NC(=O)[C@H](C(C)C)N(C)C(=O)[C@H](Cc2ccccc2)NC(=O)CN(C)C(=O)[C@H]([C@@H](C)O)NC(=O)[C@H](C)N(C)C(=O)[C@H](CC(C)C)N(C)C(=O)[C@@H](C(C)C)NC(=O)C[C@@H](C(=O)N2CCCCC2)NC(=O)[C@H](C)NC(=O)[C@H](CC(C)C)N(C)C1=O [DP-143] ([dV][NMeL][NMeA]T[Sar]F[NMeV]L[NMeL]AD-Piperidide; lactam N-11) |  |  |  | 20 ×10⁻⁶ cm/s | 25 µL/min/mg |
| CC[C@H](C)[C@@H](C(=O)N[C@@H](Cc1ccccc1)C(=O)N1CCCCC1)N(C)C(=O)[C@@H]1CC(=O)N(C)[C@H](C)C(=O)N(C)[C@@H](CC(C)C)C(=O)N[C@@H](Cc2ccccc2)C(=O)N[C@@H]([C@@H](C)O)C(=O)N(C)CC(=O)N(C)[C@@H](C)C(=O)N(C)[C@@H](C(C)C)C(=O)N[C@@H](C)C(=O)N(C)[C@@H](CC(C)C)C(=O)N[C@@H](CC(C)C)C(=O)N1 [DP-583] ([dNMeA][NMeL]FT[Sar][NMeA][NMeV]A[NMeL]LD[NMeI]F-Piperidide; lactam N-11) | 25 ×10⁻⁶ cm/s | 27 µL/min/mg |  |  |  |
| CC(C)C[C@H]1C(=O)N(C)[C@@H](CC(C)C)C(=O)N[C@@H]([C@@H](C)O)C(=O)N(C)[C@@H](C)C(=O)N[C@H](C(=O)N(C)[C@@H](Cc2ccccc2)C(=O)N(C)[C@@H](Cc2ccccc2)C(=O)N[C@@H](C)C(=O)N2CCCCC2)CC(=O)N(C)CCC(=O)N(C)CC(=O)N(C)[C@@H](Cc2ccccc2)C(=O)N[C@@H](C)C(=O)N1C [DP-398] ([NMeβAla][Sar][NMeF]A[NMeL][NMeL]T[NMeA]D[NMeF][NMeF]A-Piperidide; lactam N-9) | 24 ×10⁻⁶ cm/s | 123 µL/min/mg |  |  |  |
| CC[C@H](C)[C@H]1C(=O)N[C@H](C(=O)N2CCCCC2)CC(=O)N[C@H](C)C(=O)N[C@@H]([C@@H](C)O)C(=O)N(C)[C@@H](Cc2ccccc2)C(=O)N[C@@H](CC(C)C)C(=O)N(C)[C@@H](C)C(=O)N[C@@H](C(C)C)C(=O)N[C@@H](Cc2ccccc2)C(=O)N(C)[C@@H](CC(C)C)C(=O)N[C@@H](CC(C)C)C(=O)NCC(=O)N1C [DP-53] ([dA]T[NMeF]L[NMeA]VF[NMeL]LG[NMeI]D-Piperidide; lactam N-12) |  |  |  | 30 ×10⁻⁶ cm/s | 60 µL/min/mg |
| CC(C)C[C@H]1C(=O)N[C@H](C(=O)N2CCCCC2)CC(=O)N[C@H](C)C(=O)N(C)[C@@H](Cc2ccccc2)C(=O)N(C)[C@@H](CC(C)C)C(=O)N[C@@H]([C@@H](C)O)C(=O)N(C)[C@@H](CC(C)C)C(=O)N[C@@H](COC(C)(C)C)C(=O)N1C [DP-684] ([dA][NMeF][NMeL]T[NMeL]S(tBu)[NMeL]D-Piperidide; lactam N-8) | 23 ×10⁻⁶ cm/s | 126 µL/min/mg |  |  |  |
| CC[C@H](C)[C@@H]1NC(=O)[C@H](Cc2ccccc2)N(C)C(=O)[C@H](CC(C)C)N(C)C(=O)[C@H](Cc2ccccc2)N(C)C(=O)[C@H]([C@@H](C)O)NC(=O)CCN(C)C(=O)C[C@@H](C(=O)N(C)[C@@H](Cc2ccccc2)C(=O)N[C@@H](C)C(=O)N2CCCCC2)NC(=O)[C@H](CC(C)C)N(C)C(=O)[C@H](C)N(C)C(=O)[C@H](CC(C)C)N(C)C1=O [DP-299] ([NMeβAla]T[NMeF][NMeL][NMeF]I[NMeL][NMeA][NMeL]D[NMeF]A-Piperidide; lactam N-10) |  |  |  | 5.3 ×10⁻⁶ cm/s | 56 µL/min/mg |
| CC[C@H](C)[C@H]1C(=O)NCC(=O)N(C)[C@@H](Cc2cccc(Cl)c2)C(=O)N[C@@H]([C@@H](C)O)C(=O)N(C)[C@@H](CC(C)C)C(=O)N[C@@H](CC(C)C)C(=O)N[C@@H](C)CC(=O)N(C)[C@H](C)C(=O)N(C)[C@@H](CC(C)C)C(=O)N[C@@H](Cc2ccccc2)C(=O)N(C)[C@@H](CC(C)C)C(=O)N[C@@H](C(C)C)C(=O)N1C [DP-762] (cyclo(F[NMeL]V[NMeI]G[NMePhe(3-Cl)]T[NMeL]L[β3hA][dNMeA][NMeL])) |  |  |  | 13 ×10⁻⁶ cm/s | 81 µL/min/mg |
| CC(C)C[C@H]1C(=O)N(C)[C@@H](C(C)C)C(=O)N(C)[C@@H](C)C(=O)N[C@H](C(=O)N2CCCCC2)CC(=O)N(C)CCC(=O)N[C@@H]([C@@H](C)O)C(=O)N[C@@H](C)C(=O)N(C)[C@@H](C)C(=O)N(C)[C@@H](Cc2ccccc2)C(=O)N(C)[C@@H](CC(C)C)C(=O)N[C@@H](Cc2ccccc2)C(=O)N1C [DP-473] ([NMeβAla]TA[NMeA][NMeF][NMeL]F[NMeL][NMeV][NMeA]D-Piperidide; lactam N-11) | 14 ×10⁻⁶ cm/s | 82 µL/min/mg |  |  |  |
| CC[C@H](C)[C@@H]1NC(=O)[C@@H](C)NC(=O)C[C@@H](C(=O)N(C)[C@@H](Cc2ccccc2)C(=O)N[C@@H](C)C(=O)N2CCCCC2)NC(=O)[C@H](Cc2ccccc2)N(C)C(=O)[C@H](C)NC(=O)[C@H](CC(C)C)N(C)C(=O)[C@H](C)N(C)C(=O)[C@H]([C@@H](C)O)NC(=O)[C@H](C(C)C)N(C)C(=O)[C@H](C)N(C)C1=O [DP-491] ([dA]I[NMeA][NMeV]T[NMeA][NMeL]A[NMeF]D[NMeF]A-Piperidide; lactam N-10) | 18 ×10⁻⁶ cm/s | 39 µL/min/mg |  |  |  |
| CC[C@H](C)[C@H]1C(=O)N(C)[C@@H](C)C(=O)N(C)[C@@H](CC(C)C)C(=O)N[C@@H](COC(C)(C)C)C(=O)N(C)[C@@H](CC(C)C)C(=O)N[C@@H](C)CC(=O)N(C)[C@@H](C)C(=O)N(C)[C@@H](Cc2ccccc2)C(=O)N[C@@H](CC(C)C)C(=O)N(C)[C@@H](CC(C)C)C(=O)N[C@@H]([C@@H](C)O)C(=O)N[C@@H](Cc2ccccc2)C(=O)N1C [DP-761] (cyclo(F[NMeI][NMeA][NMeL]S(tBu)[NMeL][β3hA][NMeA][NMeF]L[NMeL]T)) |  |  |  | 9.2 ×10⁻⁶ cm/s | 118 µL/min/mg |

— patent US9409952B2, “Peptide-compound cyclization method” (Chugai Seiyaku Kabushiki Kaisha, priority 2011, dated 2016)
